Source: patent publication US5672472A, “Synthetic unrandomization of oligomer fragments” (ISIS Pharmaceuticals, Inc., priority 1994, dated 1997)

How the values were obtained:
[1] = system: ras 47-mer stem/loop RNA; experiment: Gel-shift assay of random 2'-O-methyl oligonucleotide sets binding to ras RNA target; details: for Kd: Table 3, 2'-O-methyl sets, ras RNA about 10 pM, 100 mM NaCl, 10 mM MgCl2, 4 h at 37° C., read-out: KD (set KD); for binding in gel shift (FIG. 2B) / shift of the target: Round 2; for binding in gel shift (FIG. 2B): sets at 1 and 10 μM
[2] = system: target protein; experiment: Gel shift assay of anion-exchange subfractions of oligonucleotide sets; format: binding; details: first round; sets subfractionated by charge
Procedure: An oligonucleotide analog group comprising four sets of oligonucleotides eight positions in length is prepared in accordance with Examples 3 and 6 wherein each of the sets has a different one of adenins, guanine, thymidine and cytosine in the 5th position, and the rest of the positions are randomized to provide the group: NNNNANNN, NNNNGNNN, NNNNTNNN, and NNNNCNNN. Each set is subfractionated by charge with an anion exchange column. Each subfraction is tested for affinity for the target protein by gel shift assay. […] In a further round, the 5th position is fixed to contain an adenins in the 5th position, and each set has a different nucleotide in the fourth position to provide the group NNNAANNN, NNNTANNN, NNNGANNN, and NNNCANNN. The sets are again subfractionated by charge with an anion exchange column and the subfractions are tested for affinity for the target protein by gel shift assay. The steps are repeated until each position is determined.

[3] = system: HIV tat protein; experiment: Binding of oligonucleotide groups to HIV tat protein; details: Example 27
[4] = system: protein CD4; experiment: Gel shift of 5' end labeled oligonucleotide groups with CD4; format: binding; details: for binding to the protein CD4: 100 pmoles labeled group, FIG. 7

NNCNCNCNN [NNXNCNCNN X=C]
shift of the target (FIG. 2C) ([1]; Round 3, sets at 0.1 and 1 μM): greater than 50% | Kd [1]: 0.5 µM

NNNNANNN [Set A]
binding affinity of subfraction for the target protein [2]: highest binding affinity

NNNNANNNN [NNNNXNNNN X=A]
shift of ras target (FIG. 2A) ([1]; Round 1, 100 uM): slight shift | Kd [1]: 22 µM

NNNNCNANN [NNNNCNXNN X=A]
binding in gel shift (FIG. 2B) [1]: minimal binding | Kd [1]: > 10 µM

NNNNCNCNN [NNNNCNXNN X=C]
shift of the target ([1]; 1 μM): > 25% | shift of the target ([1]; 10 μM): about 50% | Kd [1]: 4 µM

NNNNCNGNN [NNNNCNXNN X=G]
binding in gel shift (FIG. 2B) [1]: minimal binding | Kd [1]: > 10 µM

NNNNCNNNN [NNNNXNNNN X=C]
shift of the target to the bound form ([1]; Round 1, 50 uM oligonucleotide concentration): more than 50% | Kd [1]: 10 µM

NNNNGNNNN [NNNNXNNNN X=G]
binding in gel shift (FIG. 2A) ([1]; Round 1, sets at 5, 10, 50 and 100 μM): no binding | Kd [1]: > 100 µM

NNNNTNNNN
binding against the tat protein [3]: Binding has been observed | binding to the protein CD4 ([4]; listed as phosphorothioate oligonucleotide): binding of the oligonucleotide to the protein | binding affinity for CD4 (FIG. 7 legend) ([4]; 100 pmoles, visible at 0.5 and 1 μG CD4, presence and absence of dIdC): exhibited binding

NNNNTNNNN [2'-O-methyl set]
binding to the protein CD4 [4]: No binding
